Consider 1 molecule from patent US9474730B2, “Methods and compositions for use with K-ras mediated disorders” (Board of Regents of the University of Texas System, priority 2012, dated 2016).

For test [1], the system named is BHK cells expressing Myc-B-Raf V600E. Nature of the test: Signaling in cells expressing constitutively active BRaf, Western blotting. Format: cell-based, hamster. The settings on record: 6 μg/mL, 48 h, serum starved BHK cells. The procedure:
FIG. 6: Illustrates that fendiline HCl inhibition occurs at the level of Ras: Whole cell lysates from serum starved BHK cells expressing vector control, FLAG-C-Raf-DD-CAAX or Myc-B-Raf V600E treated with vehicle or fendiline HCl (6 μg/mL) for 48 h were analyzed by quantitative Western blotting. Representative Western blots of c-Raf, pMEK, pERK and Actin (loading control) are shown. Data is shown as mean±SEM from 3-4 independent experiments. Statistical significance was calculated using one way ANOVA and Student's T-test. (*=p<0.05), wherein experimentation was performed in accordance with principles described herein;
(§1) Preparation of whole-cell lysates: cells were lysed in Buffer B (50 mM Tris [pH 7.5], 75 mM NaCl, 25 mM NaF, 5 mM MgCl2, 5 mM EGTA, 1 mM dithiothreitol, 100 μM NaVO4, 1% Nonidet P-40 plus protease inhibitors). Cellular fractionation: cells were incubated in Buffer A (10 mm Tris-HCl, pH 7.5, 25 mm NaF, 5 mm MgCl2, 1 mm EGTA, 1 mm dithiothreitol, 100 μm NaVO4 plus protease inhibitors) for 30 minutes on ice and lysed by passing through a 27 G needle 30 times. The post nuclear supernatant was centrifuged at 100,000 g for 30 minutes and the membrane pellet was resuspended in Buffer A containing 1% Triton X-100.
(§2) Quantification of intensities was performed using FluorChemQ software.
Background: A western blot detects proteins with antibodies after separation by electrophoresis.

Test [2] concerns the target T1, mGFP-tagged H-rasG12V in BHK cells (Homo sapiens, UniProt P01112, G12V).
T1 construct: BHK cells expressing GFP-tagged full length constitutively active Ras (G12V) proteins; expressed in transfected cells
Kind of test: Immuno-electron microscopy and spatial analysis of plasma membrane sheets, H-rasG12V. It counts as cell-based, hamster. The settings on record: 6 μg/mL, 48 h. The procedure: (§3) FIG. 4: Illustrates that fendiline HCl alters plasma membrane association and nanoclustering of K-ras: Plasma membrane sheets were generated from cells expressing GFP-K-rasG12V or GFP-H-rasG12V. Cells were treated with vehicle or fendiline HCl (6 μg/mL) for 48 h. Plasma membrane sheets were labeled with anti-GFP antibody conjugated to 4.5 nm gold. The plasma membrane sheets were imaged in an electron microscope and the spatial distribution of the gold labeling was analyzed using Ripley's K-function. Maximum L(r)-r values above the 99% confidence interval (C.I.) for complete spatial randomness (CSR) indicate clustering at that value of r. […] Significant differences from the control pattern for fendiline treated cells were assessed using bootstrap tests, wherein experimentation was performed in accordance with principles described herein;
(§4) Immuno-EM and spatial analysis were conducted exactly as described previously (Hancock, J. F., and Prior, I. A. (2005). Electron microscopic imaging of Ras signaling domains. Methods 37, 165-172; Prior, I. A., Muncke, C., Parton, R. G., and Hancock, J. F. (2003). Direct visualization of Ras proteins in spatially distinct cell surface microdomains. J Cell Biol 160, 165-170). […] Intact 1-μm^2 areas of the plasma membrane sheet were identified using ImageJ, and the x-y coordinates of the gold particles were determined. […]

In test [3] the test system is BHK cells stably expressing K-rasG12V. Nature of the test: Signaling downstream of oncogenic K-ras by quantitative Western blotting. It counts as cell-based, hamster. As to conditions: 6 μg/mL, 48 h, K-rasG12V BHK cells. The procedure:
FIG. 5: Illustrates that fendiline HCl inhibits Raf kinase activity and signaling downstream of oncogenic K-ras: BHK cells stably expressing K-rasG12V were treated with vehicle or fendiline HCl (6 μg/mL) for 48 h. (A) Raf kinase activity in membrane fractions prepared from the cells was measured in a coupled […] kinase assay. Data is shown as mean±SEM from 3 independent experiments. (B) ppMEK and ppERK in soluble protein fraction and pAkt levels in membrane protein fraction were measured by quantitative Western blotting. Actin and Akt were used as loading controls for soluble and membrane fractions, respectively. A representative blots are shown. Data is shown as mean±SEM from 3-4 independent experiments. Statistical significance was calculated using one way ANOVA and Student's T-test. (*=p<0.05), wherein experimentation was performed in accordance with principles described herein;
as §1, §2

Test [4] has as its target T2, GFP-H-rasG12V in MDCK or BHK cells (Homo sapiens, UniProt P01112, G12V).
T2 construct: MDCK and BHK cells expressing GFP-tagged full length constitutively active Ras (G12V) proteins; expressed in transfected cells
Kind of test: Cellular fractionation (P100/S100) with quantitative Western blotting, GFP-H-rasG12V. It counts as cell-based, canine (MDCK), hamster (BHK). As to conditions: 4 μg/mL for MDCK and 6 μg/mL for BHK, 48 hours, vs vehicle. The procedure:
. Following treatment, membrane (P100) and soluble (S100) protein fractions were prepared and analyzed by quantitative Western blotting. Shown are representative Western blots (showing GFP-Ras) of membrane and soluble protein fractions from 3 independent experiments.
as §1, §2

Test [5] addresses T3, mGFP-tagged K-rasG12V in BHK cells (Homo sapiens, UniProt P01116, G12V).
T3 construct: BHK cells expressing GFP-tagged full length constitutively active Ras (G12V) proteins; expressed in transfected cells
Nature of the test: Immuno-electron microscopy and spatial analysis of plasma membrane sheets, K-rasG12V. Format: cell-based, hamster. As to conditions: 6 μg/mL, 48 h. As to the method: as §3, §4

Where a name gives a salt, the structure may show the parent alone.

On to `CC(NCCC(c1ccccc1)c1ccccc1)c1ccccc1` (stereo not drawn) [fendiline HCl], for which the “signaling downstream of constitutively active BRaf” value in test [1] is recorded as “inhibited signaling downstream of constitutively active BRaf”. Also, in test [2], the “clustering of H-rasG12V on plasma membrane” value was “reduced clustering of both K- and H-rasG12V proteins”; the “membrane association of H-rasG12V (EM gold labeling)” value was “slightly increases membrane association of H-rasG12V”. The pAkt levels result in test [3] (membrane fraction) is listed as “decreases the pAkt levels, although not statistically significant”. For the same molecule, in test [3] (vs vehicle), the “cellular levels of pERK” value is reported as “significantly reduces” and the “cellular levels of pMEK” value is given as “significantly reduces”. The “localization of GFP-H-rasG12V (fractionation)” value in test [4] is listed as “does not alter the localization of GFP-H-rasG12V”. In test [5], the “clustering of K-rasG12V on plasma membrane” value was “reduced clustering of both K- and H-rasG12V proteins”; the “plasma membrane associated K-rasG12V (EM gold labeling)” value is listed as “reduces the plasma membrane associated K-rasG12V”.
